Laboratory results from patent US8796268B2, “Heteroaryls and uses thereof” (Millennium Pharmaceuticals, Inc., priority 2010, dated 2014).

Key:
Type in all cases: biochemical
[1] = molecular target: T1, Human PI3K alpha (Homo sapiens, UniProt P42336); experiment: Human PI3K alpha enzyme assay (HTRF); details: concentration not given, b1387 states 1.1 μM for PI3K α and β; for inhibition at 1.1 µM: read-out: p110 alpha Percent Inhibition
T1 construct: His (N); host or cells: SF9 insect cells (baculovirus)
T1 sequence (P42336 whole entry): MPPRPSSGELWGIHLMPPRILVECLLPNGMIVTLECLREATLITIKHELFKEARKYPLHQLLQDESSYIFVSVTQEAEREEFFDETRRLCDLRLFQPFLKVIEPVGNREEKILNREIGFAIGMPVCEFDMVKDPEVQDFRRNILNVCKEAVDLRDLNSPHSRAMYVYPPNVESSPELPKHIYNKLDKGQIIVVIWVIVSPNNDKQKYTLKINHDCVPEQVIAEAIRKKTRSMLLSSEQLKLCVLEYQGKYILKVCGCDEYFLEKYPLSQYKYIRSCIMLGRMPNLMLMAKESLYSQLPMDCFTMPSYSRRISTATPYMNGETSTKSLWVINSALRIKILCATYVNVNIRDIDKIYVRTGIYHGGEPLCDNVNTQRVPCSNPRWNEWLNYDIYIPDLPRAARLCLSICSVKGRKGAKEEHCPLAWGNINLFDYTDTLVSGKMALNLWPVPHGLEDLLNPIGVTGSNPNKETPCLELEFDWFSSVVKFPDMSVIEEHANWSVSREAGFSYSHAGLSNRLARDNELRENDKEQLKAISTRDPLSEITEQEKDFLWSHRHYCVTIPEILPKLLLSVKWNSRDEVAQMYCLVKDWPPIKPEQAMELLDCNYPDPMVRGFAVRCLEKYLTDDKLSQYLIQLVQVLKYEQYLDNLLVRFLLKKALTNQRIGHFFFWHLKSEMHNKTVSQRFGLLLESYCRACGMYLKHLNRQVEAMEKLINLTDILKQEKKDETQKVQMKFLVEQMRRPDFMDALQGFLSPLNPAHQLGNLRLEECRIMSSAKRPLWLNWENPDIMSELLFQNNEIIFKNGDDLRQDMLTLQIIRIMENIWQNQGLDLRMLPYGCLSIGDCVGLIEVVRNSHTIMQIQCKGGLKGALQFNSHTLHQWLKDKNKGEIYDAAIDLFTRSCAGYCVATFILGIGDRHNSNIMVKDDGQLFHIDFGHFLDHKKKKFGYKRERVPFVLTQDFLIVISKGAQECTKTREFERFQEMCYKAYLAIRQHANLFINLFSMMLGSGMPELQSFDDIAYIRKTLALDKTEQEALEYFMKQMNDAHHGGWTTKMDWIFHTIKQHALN
T1 sequence (P27986 whole entry partner): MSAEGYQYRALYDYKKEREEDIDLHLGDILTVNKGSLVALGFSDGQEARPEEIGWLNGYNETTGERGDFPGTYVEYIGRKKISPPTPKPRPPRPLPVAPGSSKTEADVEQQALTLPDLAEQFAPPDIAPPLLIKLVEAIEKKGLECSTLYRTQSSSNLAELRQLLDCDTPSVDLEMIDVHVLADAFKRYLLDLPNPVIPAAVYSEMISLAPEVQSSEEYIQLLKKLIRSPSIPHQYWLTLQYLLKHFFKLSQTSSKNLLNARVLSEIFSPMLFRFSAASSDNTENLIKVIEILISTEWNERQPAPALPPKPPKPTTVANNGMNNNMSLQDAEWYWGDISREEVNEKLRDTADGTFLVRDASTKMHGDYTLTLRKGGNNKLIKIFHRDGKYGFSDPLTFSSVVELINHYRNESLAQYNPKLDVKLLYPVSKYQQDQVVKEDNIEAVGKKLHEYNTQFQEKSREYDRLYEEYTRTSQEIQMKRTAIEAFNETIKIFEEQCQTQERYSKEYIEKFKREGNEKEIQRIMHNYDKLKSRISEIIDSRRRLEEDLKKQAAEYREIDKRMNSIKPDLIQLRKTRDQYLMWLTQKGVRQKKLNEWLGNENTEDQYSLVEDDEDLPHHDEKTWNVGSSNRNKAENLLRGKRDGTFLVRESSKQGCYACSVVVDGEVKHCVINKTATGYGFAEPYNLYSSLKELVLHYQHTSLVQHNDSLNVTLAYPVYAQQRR

[2] = molecular target: T2, Human PI3K beta (Homo sapiens, UniProt P42338); experiment: Human PI3K beta enzyme assay (HTRF); details: concentration not given, b1387 states 1.1 μM for PI3K α and β; for inhibition at 1.1 µM: read-out: p110 beta Percent Inhibition
T2 construct: His (N); host or cells: SF9 insect cells (baculovirus)
T2 sequence (P42338 whole entry): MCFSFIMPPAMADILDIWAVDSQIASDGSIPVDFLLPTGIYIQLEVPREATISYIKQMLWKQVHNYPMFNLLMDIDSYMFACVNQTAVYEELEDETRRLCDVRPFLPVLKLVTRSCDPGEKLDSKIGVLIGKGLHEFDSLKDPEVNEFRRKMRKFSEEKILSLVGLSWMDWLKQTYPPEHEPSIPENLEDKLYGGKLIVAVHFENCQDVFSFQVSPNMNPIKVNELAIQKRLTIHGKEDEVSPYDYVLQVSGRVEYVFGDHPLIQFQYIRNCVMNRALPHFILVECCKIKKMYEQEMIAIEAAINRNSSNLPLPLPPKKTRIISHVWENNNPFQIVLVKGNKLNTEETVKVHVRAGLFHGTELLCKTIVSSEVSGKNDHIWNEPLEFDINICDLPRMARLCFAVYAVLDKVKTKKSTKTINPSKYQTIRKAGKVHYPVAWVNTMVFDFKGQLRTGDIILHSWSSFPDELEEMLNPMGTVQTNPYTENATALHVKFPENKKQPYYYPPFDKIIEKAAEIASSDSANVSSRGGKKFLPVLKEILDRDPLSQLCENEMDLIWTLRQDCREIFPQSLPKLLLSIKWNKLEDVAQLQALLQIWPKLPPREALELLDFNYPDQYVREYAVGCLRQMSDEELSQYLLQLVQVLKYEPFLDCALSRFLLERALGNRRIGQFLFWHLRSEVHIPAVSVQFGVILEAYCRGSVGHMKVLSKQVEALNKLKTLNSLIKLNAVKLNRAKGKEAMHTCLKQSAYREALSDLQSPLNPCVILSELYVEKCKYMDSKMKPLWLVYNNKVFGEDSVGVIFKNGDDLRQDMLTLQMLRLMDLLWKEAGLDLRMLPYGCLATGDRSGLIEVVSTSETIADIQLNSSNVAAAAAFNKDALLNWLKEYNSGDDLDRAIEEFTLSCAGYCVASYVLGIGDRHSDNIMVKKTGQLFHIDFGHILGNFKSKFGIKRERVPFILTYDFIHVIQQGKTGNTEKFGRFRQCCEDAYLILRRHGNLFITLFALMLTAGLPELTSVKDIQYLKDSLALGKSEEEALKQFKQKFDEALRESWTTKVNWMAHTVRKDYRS
T2 sequence (P27986 whole entry partner): as the sequence (P27986 whole entry partner) above
In short: (§1)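 Compounds were mixed with 25 uM ATP, then with 3.5 uM di-C8 PI(4,5)P2 and His-tagged PI3K isoform (β 5.25 nM, δ 0.75 nM, γ 5 nM) at pH 7.00. After 30 min at room temperature, EDTA stopped the reaction and PIP3 was measured by HTRF over 1 h.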

[3] = molecular target: T3, Human PI3K delta (Homo sapiens, UniProt O00329); experiment: Human PI3K delta enzyme assay (HTRF); details: concentration not given, b1389 states 1.0 μM for PI3K δ and γ; for inhibition at 1 µM: read-out: p110 delta Percent Inhibition
T3 construct: His (N); host or cells: SF9 insect cells (baculovirus)
T3 sequence (O00329 whole entry): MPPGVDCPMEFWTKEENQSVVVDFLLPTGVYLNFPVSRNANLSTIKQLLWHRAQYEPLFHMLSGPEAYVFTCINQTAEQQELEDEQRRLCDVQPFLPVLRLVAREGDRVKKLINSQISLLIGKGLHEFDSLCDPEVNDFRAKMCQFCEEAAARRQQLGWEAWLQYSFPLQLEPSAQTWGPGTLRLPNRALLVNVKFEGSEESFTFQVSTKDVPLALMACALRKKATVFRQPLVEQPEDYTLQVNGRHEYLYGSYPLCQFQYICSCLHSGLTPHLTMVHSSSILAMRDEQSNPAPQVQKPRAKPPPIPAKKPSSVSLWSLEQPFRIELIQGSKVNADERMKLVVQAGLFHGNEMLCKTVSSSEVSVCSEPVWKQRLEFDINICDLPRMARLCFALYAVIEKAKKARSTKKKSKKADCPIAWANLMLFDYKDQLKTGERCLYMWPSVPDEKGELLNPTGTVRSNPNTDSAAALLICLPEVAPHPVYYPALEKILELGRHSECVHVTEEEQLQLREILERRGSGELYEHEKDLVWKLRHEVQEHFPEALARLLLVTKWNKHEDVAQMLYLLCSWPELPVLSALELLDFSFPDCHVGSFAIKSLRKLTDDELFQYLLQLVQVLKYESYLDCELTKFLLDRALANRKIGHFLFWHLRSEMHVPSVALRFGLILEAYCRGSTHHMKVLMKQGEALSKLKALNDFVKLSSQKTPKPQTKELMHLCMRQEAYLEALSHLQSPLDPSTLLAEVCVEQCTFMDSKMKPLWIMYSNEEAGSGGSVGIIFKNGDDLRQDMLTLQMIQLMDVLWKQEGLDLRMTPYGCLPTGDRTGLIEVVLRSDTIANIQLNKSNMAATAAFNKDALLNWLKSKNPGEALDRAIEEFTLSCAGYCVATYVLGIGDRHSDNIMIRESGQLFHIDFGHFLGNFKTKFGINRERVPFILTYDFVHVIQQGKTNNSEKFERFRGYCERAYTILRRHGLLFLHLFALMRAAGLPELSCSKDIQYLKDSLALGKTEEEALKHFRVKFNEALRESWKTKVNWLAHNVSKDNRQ
T3 sequence (P27986 whole entry partner): as the sequence (P27986 whole entry partner) above
In short: as §1

[4] = molecular target: T4, Human PI3K gamma (Homo sapiens, UniProt P48736); experiment: Human PI3K gamma enzyme assay (HTRF); details: concentration not given, b1389 states 1.0 μM for PI3K δ and γ; for inhibition at 1 µM: read-out: p110 gamma Percent Inhibition
T4 construct: His (N); host or cells: SF9 insect cells (baculovirus)
T4 sequence (P48736 whole entry): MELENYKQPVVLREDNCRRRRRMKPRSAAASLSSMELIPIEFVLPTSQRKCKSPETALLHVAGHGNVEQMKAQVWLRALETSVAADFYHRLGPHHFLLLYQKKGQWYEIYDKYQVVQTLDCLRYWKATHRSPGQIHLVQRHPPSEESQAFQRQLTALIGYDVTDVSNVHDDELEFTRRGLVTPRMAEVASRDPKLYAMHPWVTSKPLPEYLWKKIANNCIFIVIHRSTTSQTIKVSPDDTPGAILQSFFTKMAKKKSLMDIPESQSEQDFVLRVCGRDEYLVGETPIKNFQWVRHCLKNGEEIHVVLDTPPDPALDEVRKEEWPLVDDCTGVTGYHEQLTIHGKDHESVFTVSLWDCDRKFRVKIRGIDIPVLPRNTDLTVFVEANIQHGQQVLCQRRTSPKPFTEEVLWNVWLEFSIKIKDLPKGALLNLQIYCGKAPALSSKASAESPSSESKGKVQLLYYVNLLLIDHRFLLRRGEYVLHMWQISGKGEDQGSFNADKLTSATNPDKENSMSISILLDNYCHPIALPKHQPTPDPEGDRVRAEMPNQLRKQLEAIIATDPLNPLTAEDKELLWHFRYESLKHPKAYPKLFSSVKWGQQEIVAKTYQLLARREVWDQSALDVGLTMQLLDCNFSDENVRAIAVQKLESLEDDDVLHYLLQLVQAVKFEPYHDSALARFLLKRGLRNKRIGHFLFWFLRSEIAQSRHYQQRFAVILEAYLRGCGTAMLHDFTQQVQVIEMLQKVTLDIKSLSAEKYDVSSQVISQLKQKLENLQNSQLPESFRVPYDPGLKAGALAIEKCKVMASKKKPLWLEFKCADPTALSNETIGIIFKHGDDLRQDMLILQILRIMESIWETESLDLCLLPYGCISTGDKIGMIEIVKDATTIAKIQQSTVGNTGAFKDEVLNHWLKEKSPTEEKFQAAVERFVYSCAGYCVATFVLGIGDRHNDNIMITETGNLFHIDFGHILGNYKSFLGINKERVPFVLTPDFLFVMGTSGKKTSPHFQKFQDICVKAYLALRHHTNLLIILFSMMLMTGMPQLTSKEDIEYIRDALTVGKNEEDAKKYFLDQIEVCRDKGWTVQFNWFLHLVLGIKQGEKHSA
In short: as §1

Compound	inhibition at 1.1 µM [1]	inhibition at 1.1 µM [2]	inhibition at 1 µM [3]	inhibition at 1 µM [4]	p110 alpha Percent Inhibition [1]	p110 beta Percent Inhibition [2]	p110 delta Percent Inhibition [3]	p110 gamma Percent Inhibition [4]
OC(c1ccc2ncccc2c1)c1cc(-c2ccncc2)sc1-c1nnc[nH]1 (stereo not drawn) [Compound 257]	31%	97%	68%	30%	–	–	–	–
COc1ccc(C(O)c2cc(-c3ccncc3)sc2-c2nnc[nH]2)cc1F (stereo not drawn) [Compound 130]	21%	73%	62%	22%	–	–	–	–
CC(=O)Nc1cc(-c2cc(C(O)(CCCN(C)C)c3ccc(Cl)cc3)c(-c3nnc[nH]3)s2)ccn1 (stereo not drawn) [Compound 145]	64%	98%	97%	9%	–	–	–	–
CC(=O)Nc1cc(-c2sc(-c3nnc[nH]3)c(S(=O)(=O)c3ccc(Cl)cc3)c2C#N)ccn1 [Compound 140, N-{4-[4-[(4-chlorophenyl)sulfonyl]-3-cyano-5-(4H-1,2,4-triazol-3-yl)-2-thienyl]pyridin-2-yl}acetamide]	76%	47%	74%	62%	–	–	–	–
COc1cc(C(O)c2cc(-c3ccncc3)sc2-c2ncn[nH]2)c(F)cc1Cl (stereo not drawn) [Compound 186]	68%	109%	92%	65%	–	–	–	–
COc1ccc2ccc(Cc3nc(N4CCOCC4)sc3C(=O)O)cc2c1 [Compound 335]	54%	111%	107%	31%	–	–	–	–
Nc1nccc(-c2sc(-c3ccncc3)nc2Cc2ccc(Cl)cc2)n1 [Compound 150, 4-(4-(4-chlorobenzyl)-2-(pyridin-4-yl)thiazol-5-yl)pyrimidin-2-amine]	2%	54%	35%	6%	–	–	–	–
CC(=O)Nc1cc(-c2cc([C@H](c3ccc(Cl)cc3)N3CCC3)c(-c3nnc[nH]3)s2)ccn1 (single isomer, unassigned) [Compound 241]	59%	107%	104%	27%	–	–	–	–
COc1ccc2ccc(Cc3c(C(=O)O)sc(N4CCOCC4)c3C#N)cc2c1 [Compound 361]	104%	115%	111%	60%	–	–	–	–
OC(c1cc(-c2ccncc2)sc1-c1nnc[nH]1)c1c(F)ccc2ccccc12 (stereo not drawn) [Compound 203]	–	–	–	–	10%	88%	67%	16%
CC(=O)Nc1cc(-c2cc(C(OCC3CNC3)c3ccc(Cl)cc3)c(-c3nnc[nH]3)s2)ccn1 (stereo not drawn) [Compound 182]	83%	100%	107%	45%	–	–	–	–
Clc1ccc(C(c2cc(-c3ccnc(Cl)c3)sc2-c2nnc[nH]2)N2CCC2)cc1 (stereo not drawn) [Compound 251]	14%	96%	44%	12%	–	–	–	–
COC(=O)NC(c1ccc2ccccc2c1)c1c(C(=O)O)sc(N2CCOCC2)c1C#N (stereo not drawn) [Compound 354]	89%	111%	99%	40%	–	–	–	–
CC(C)(C)[S+]([O-])NC(c1ccc(Cl)c(Cl)c1)c1c(C(=O)O)sc(N2CCOCC2)c1C#N (stereo not drawn) [Compound 342]	34%	80%	97%	12%	–	–	–	–
N#Cc1c(N2CCOCC2)sc(C(=O)O)c1Cc1ccc2ccncc2c1 [Compound 309, 4-cyano-3-(isoquinolin-7-ylmethyl)-5-(morpholin-4-yl)thiophene-2-carboxylic acid]	56%	101%	108%	66%	–	–	–	–
